Assays:
[1] = test system: S. typhimurium TA1535, TA97a, TA98, TA100 and E. coli WP2; assay: Micro Ames bacterial mutation test, five strains, with or without S9; details: 0.075-250 µg per well
Protocol: To determine the potential genotoxicity of YC-001, a Micro Ames test was performed by the Charles River Laboratories, Inc. The S9 microsomal fraction was obtained from Moltox Molecular Toxicology, Inc. (Boone, NC, USA). A premixture was prepared including 25 µL of S9 mix (10% v/v S9 fraction in 8 mM MgCl2, 33 mM KCl, 100 mM sodium phosphate buffer, pH 7.4, +S9) or phosphate buffer (0.2 M sodium phosphate, pH 7.4, no S9), 5 µL of bacterial culture (>1000 × 10^6 bacteria mL^−1) and 100 µL of molten top agar supplemented with 0.05 mM biotin and minimal histidine (0.05 mM) and minimal tryptophan (0.05 mM). The 24-well plates were prepared by adding 1.3 mL of minimal bottom agar (1.3% agar, Vogel-Bonner medium E and 0.25% glucose) to each well. A 10 µL aliquot of YC-001 working solution/negative/positive control was added to each well followed by addition of 130 µL of the premixture. The plates kept on a leveled surface for 1 h while the top agar solidified, then were incubated at 37 °C for 72 h. After this period, plates were stored at 4 °C before revertant colony counts were manually recorded using an inverted microscope. […]

[2] = Quantification of YC-001 in mouse eye by HPLC; assay type: in vivo, C57BL/6 mouse
Protocol: To measure the amount of YC-001 in the eye following systemic delivery, YC-001 was administered to C57BL/6 mice by i.p. injection at a dose of 200 mg kg^−1 bw. Mice then were euthanized at 30 min, 3 h and 24 h after these injections, and their eyes were removed for analysis. Eyes from two mice under the same treatment were homogenized on ice in 1 mL of PBS:methanol (1:1 ratio). Four-mL of hexanes were then added to the homogenized sample, and the mixture was vortexed for 15 s. The mixture was centrifuged at 3,220×g for 15 min at 4 °C to separate the hexanes from the aqueous layer. From the top hexane layer, 3.5 mL was transferred to a glass vial. This sample was then dried in a Savant speed vacuum concentrator (Thermofisher, Waltham, Massachusetts, USA) and dissolved in 300 µL methanol. One hundred-µL of dissolved sample were injected into an HPLC system connected to an Agilent Sil column (5 μm, 4.6 × 250 mm; Agilent Technologies, Santa Clara, CA) for separation with 10% ethyl acetate in hexanes at a flow rate 1.4 mL min^−1. A chromatogram of absorption at 340 nm was then obtained. A YC-001 standard was subjected to the same procedures as the ocular samples and used to establish a retention time at 13.2 min. By comparing ocular samples to its standard curve of YC-001, the amount of YC-001 was then quantified in pmol per eye at different time points after its systemic administration. The identity of YC-001 in the peak fraction with a retention time of […] was confirmed by LC–MS using the same chromatography method as applied for HPLC.

[3] = Pharmacokinetics of YC-001 in mouse plasma; assay type: in vivo, C57BL/6 mice
Protocol: C57BL/6J mice ranging from 8 to 12 weeks of age were purchased from Jackson Labs. For administration, YC-001 was dissolved in DMSO at 160 mg mL^−1. To obtain the blood clearance curve for YC-001, each animal was treated by i.p. injection of YC-001 at 200 mg kg^−1 bw. After administration, blood was collected at 5, 10, 15, 20, 30, 45, 60, and 90 min from the orbital sinus and dropped into K2EDTA blood collection tubes (FisherScientific). Mice were anesthetized with a ketamine/xylazine cocktail two min before blood collection. The blood samples were then incubated at 4 °C for 2 h before centrifugation at 1800×g for 20 min to collect the plasma in the supernatant. Plasma was mixed with twice the volume of methanol and then stored at −80 °C. YC-001 was extracted from the samples (300 to 600 μL) with 0.6 mL chloroform. The chloroform fraction was collected, dried, and the extracted organic compounds were dissolved in 0.25 mL of methanol. One hundred µL of each sample was injected onto an Eclipse XDB-C18 column (4.6 × 150 mm, 5 µm) and YC-001 was detected and quantified as described in the section Metabolic stability of YC-001.

For `O=C1OCC(c2ccc(Cl)s2)=C1c1cccs1` [YC-001], the Ames test result [1] was “negative”, the “amount of YC-001 in eye” value ([2]; 0.5 h after i.p. 200 mg kg^−1 bw) was “About 70 pmol per eye” and the “amount of YC-001 in eye” value ([2]; 3 h after i.p. 200 mg kg^−1 bw) was 280 pmol per eye. For the same molecule, the “amount of YC-001 in eye” value ([2]; 24 h after i.p. 200 mg kg^−1 bw) was “undetectable”, the k el ([3]; C57BL/6J, mouse, plasma, intraperitoneal, 200 mg kg^−1 bw, estimated from T1/2 and C0, read-out: elimination rate constant (Ke) (converted)) was 0.000335 s⁻¹ and the C0 ([3]; C57BL/6J, mouse, plasma, ip, i.p. 200 mg kg^−1 bw, read-out: initial plasma concentration (C0)) was 7280 ng/mL. The half-life ([3]; C57BL/6J, mouse, plasma, ip, i.p. 200 mg kg^−1 bw, read-out: plasma half-life (T1/2)) was 34.5 min, the clearance ([3]; estimated from T1/2 and C0) was 0.552 L min^−1 kg^−1 bw and the “volume of distribution (Vd)” value ([3]; estimated from T1/2 and C0) was 27.5 L kg^−1 bw.
